Test results published in ChEMBL document CHEMBL6120977, “Structure-Affinity-Pharmacokinetics Relationships of Novel 18F-Labeled 1,4-Diazepane Derivatives for Orexin 1 Receptor Imaging” (J Med Chem, 2024).
Blank lines part the entries; values can stand above or below the compound they belong to.

What was measured:
[1] = Biodistribution in male ddY mouse blood administered intravenously and measured at 2 mins postinjection by gamma counter analysis; type: ADME, organism-based; conditions: in vivo, iv
[2] = Biodistribution in male ddY mouse blood administered intravenously and measured at 10 mins postinjection by gamma counter analysis; type: ADME, organism-based; conditions: in vivo, iv
[3] = Biodistribution in male ddY mouse blood administered intravenously and measured at 30 mins postinjection by gamma counter analysis; type: ADME, organism-based; conditions: in vivo, iv, 0.5 h
[4] = Biodistribution in male ddY mouse blood administered intravenously and measured at 60 mins postinjection by gamma counter analysis; type: ADME, organism-based; conditions: in vivo, iv, 1 h
[5] = Biodistribution in male ddY mouse spleen administered intravenously and measured at 2 mins postinjection by gamma counter analysis; type: ADME, organism-based; conditions: in vivo, iv
[6] = Biodistribution in male ddY mouse spleen administered intravenously and measured at 10 mins postinjection by gamma counter analysis; type: ADME, organism-based; conditions: in vivo, iv
[7] = Biodistribution in male ddY mouse spleen administered intravenously and measured at 30 mins postinjection by gamma counter analysis; type: ADME, organism-based; conditions: in vivo, iv, 0.5 h
[8] = Biodistribution in male ddY mouse spleen administered intravenously and measured at 60 mins postinjection by gamma counter analysis; type: ADME, organism-based; conditions: in vivo, iv, 1 h
[9] = Biodistribution in male ddY mouse pancreas administered intravenously and measured at 2 mins postinjection by gamma counter analysis; type: ADME, organism-based; conditions: in vivo, iv
[10] = Biodistribution in male ddY mouse pancreas administered intravenously and measured at 10 mins postinjection by gamma counter analysis; type: ADME, organism-based; conditions: in vivo, iv
[11] = Biodistribution in male ddY mouse pancreas administered intravenously and measured at 30 mins postinjection by gamma counter analysis; type: ADME, organism-based; conditions: in vivo, iv, 0.5 h
[12] = Biodistribution in male ddY mouse pancreas administered intravenously and measured at 60 mins postinjection by gamma counter analysis; type: ADME, organism-based; conditions: in vivo, iv, 1 h
[13] = Biodistribution in male ddY mouse stomach administered intravenously and measured per organ at 2 mins postinjection by gamma counter analysis; type: ADME, organism-based; conditions: in vivo, iv
[14] = Biodistribution in male ddY mouse stomach administered intravenously and measured per organ at 10 mins postinjection by gamma counter analysis; type: ADME, organism-based; conditions: in vivo, iv
[15] = Biodistribution in male ddY mouse stomach administered intravenously and measured per organ at 30 mins postinjection by gamma counter analysis; type: ADME, organism-based; conditions: in vivo, iv, 0.5 h
[16] = Biodistribution in male ddY mouse stomach administered intravenously and measured per organ at 60 mins postinjection by gamma counter analysis; type: ADME, organism-based; conditions: in vivo, iv, 1 h
[17] = Biodistribution in male ddY mouse intestine administered intravenously and measured at 2 mins postinjection by gamma counter analysis; type: ADME, organism-based; conditions: in vivo, iv
[18] = Biodistribution in male ddY mouse intestine administered intravenously and measured at 10 mins postinjection by gamma counter analysis; type: ADME, organism-based; conditions: in vivo, iv
[19] = Biodistribution in male ddY mouse intestine administered intravenously and measured at 30 mins postinjection by gamma counter analysis; type: ADME, organism-based; conditions: in vivo, iv, 0.5 h
[20] = Biodistribution in male ddY mouse intestine administered intravenously and measured at 60 mins postinjection by gamma counter analysis; type: ADME, organism-based; conditions: in vivo, iv, 1 h
[21] = Biodistribution in male ddY mouse kidney administered intravenously and measured at 2 mins postinjection by gamma counter analysis; type: ADME, organism-based; conditions: in vivo, iv
[22] = Biodistribution in male ddY mouse kidney administered intravenously and measured at 10 mins postinjection by gamma counter analysis; type: ADME, organism-based; conditions: in vivo, iv
[23] = Biodistribution in male ddY mouse kidney administered intravenously and measured at 30 mins postinjection by gamma counter analysis; type: ADME, organism-based; conditions: in vivo, iv, 0.5 h
[24] = Biodistribution in male ddY mouse kidney administered intravenously and measured at 60 mins postinjection by gamma counter analysis; type: ADME, organism-based; conditions: in vivo, iv, 1 h
[25] = Biodistribution in male ddY mouse liver administered intravenously and measured at 2 mins postinjection by gamma counter analysis; type: ADME, organism-based; conditions: in vivo, iv
[26] = Biodistribution in male ddY mouse liver administered intravenously and measured at 10 mins postinjection by gamma counter analysis; type: ADME, organism-based; conditions: in vivo, iv
[27] = Biodistribution in male ddY mouse liver administered intravenously and measured at 30 mins postinjection by gamma counter analysis; type: ADME, organism-based; conditions: in vivo, iv, 0.5 h
[28] = Biodistribution in male ddY mouse liver administered intravenously and measured at 60 mins postinjection by gamma counter analysis; type: ADME, organism-based; conditions: in vivo, iv, 1 h
[29] = Biodistribution in male ddY mouse heart administered intravenously and measured at 2 mins postinjection by gamma counter analysis; type: ADME, organism-based; conditions: in vivo, iv
[30] = Biodistribution in male ddY mouse heart administered intravenously and measured at 10 mins postinjection by gamma counter analysis; type: ADME, organism-based; conditions: in vivo, iv
[31] = Biodistribution in male ddY mouse heart administered intravenously and measured at 30 mins postinjection by gamma counter analysis; type: ADME, organism-based; conditions: in vivo, iv, 0.5 h
[32] = Biodistribution in male ddY mouse heart administered intravenously and measured at 60 mins postinjection by gamma counter analysis; type: ADME, organism-based; conditions: in vivo, iv, 1 h
[33] = Biodistribution in male ddY mouse lung administered intravenously and measured at 2 mins postinjection by gamma counter analysis; type: ADME, organism-based; conditions: in vivo, iv
[34] = Biodistribution in male ddY mouse lung administered intravenously and measured at 10 mins postinjection by gamma counter analysis; type: ADME, organism-based; conditions: in vivo, iv
[35] = Biodistribution in male ddY mouse lung administered intravenously and measured at 30 mins postinjection by gamma counter analysis; type: ADME, organism-based; conditions: in vivo, iv, 0.5 h
[36] = Biodistribution in male ddY mouse lung administered intravenously and measured at 60 mins postinjection by gamma counter analysis; type: ADME, organism-based; conditions: in vivo, iv, 1 h
[37] = Biodistribution in male ddY mouse brain administered intravenously and measured at 2 mins postinjection by gamma counter analysis; type: ADME, organism-based; conditions: in vivo, iv
[38] = Biodistribution in male ddY mouse brain administered intravenously and measured at 10 mins postinjection by gamma counter analysis; type: ADME, organism-based; conditions: in vivo, iv
[39] = Biodistribution in male ddY mouse brain administered intravenously and measured at 30 mins postinjection by gamma counter analysis; type: ADME, organism-based; conditions: in vivo, iv, 0.5 h
[40] = Biodistribution in male ddY mouse brain administered intravenously and measured at 60 mins postinjection by gamma counter analysis; type: ADME, organism-based; conditions: in vivo, iv, 1 h
[41] = Biodistribution in male ddY mouse bone administered intravenously and measured at 2 mins postinjection by gamma counter analysis; type: ADME, organism-based, Bone element; conditions: in vivo, iv
[42] = Biodistribution in male ddY mouse bone administered intravenously and measured at 10 mins postinjection by gamma counter analysis; type: ADME, organism-based, Bone element; conditions: in vivo, iv
[43] = Biodistribution in male ddY mouse bone administered intravenously and measured at 30 mins postinjection by gamma counter analysis; type: ADME, organism-based, Bone element; conditions: in vivo, iv, 0.5 h
[44] = Biodistribution in male ddY mouse bone administered intravenously and measured at 60 mins postinjection by gamma counter analysis; type: ADME, organism-based, Bone element; conditions: in vivo, iv, 1 h
[45] = molecular target: T1, Orexin/Hypocretin receptor type 1 (Homo sapiens, UniProt O43613); assay: Displacement of […]5IBOM from OX1R (unknown origin) transfected in CHO cells assessed as inhibition constant incubated for 1.5 hrs by automated gamma-counter analysis; type: cell-based
T1 sequence (O43613 whole entry): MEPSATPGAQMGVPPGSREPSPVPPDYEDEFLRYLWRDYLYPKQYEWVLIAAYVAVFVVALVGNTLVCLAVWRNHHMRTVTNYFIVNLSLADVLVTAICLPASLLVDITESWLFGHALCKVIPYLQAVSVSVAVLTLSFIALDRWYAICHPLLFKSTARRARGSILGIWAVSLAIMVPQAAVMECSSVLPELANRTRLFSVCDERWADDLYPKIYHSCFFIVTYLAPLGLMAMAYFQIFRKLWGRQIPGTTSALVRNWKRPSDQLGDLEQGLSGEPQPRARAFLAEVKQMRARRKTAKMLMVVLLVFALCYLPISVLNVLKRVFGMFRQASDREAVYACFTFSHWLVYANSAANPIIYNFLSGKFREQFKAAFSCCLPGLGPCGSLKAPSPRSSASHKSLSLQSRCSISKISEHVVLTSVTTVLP

Orexin receptor type 2 = molecular target: T2, Orexin receptor type 2 (Homo sapiens, UniProt O43614); assay: Displacement of […]5IBOM from OX2R (unknown origin) transfected in CHO cells assessed as inhibition constant incubated for 1.5 hrs by automated gamma-counter analysis; type: cell-based
T2 sequence (O43614 whole entry): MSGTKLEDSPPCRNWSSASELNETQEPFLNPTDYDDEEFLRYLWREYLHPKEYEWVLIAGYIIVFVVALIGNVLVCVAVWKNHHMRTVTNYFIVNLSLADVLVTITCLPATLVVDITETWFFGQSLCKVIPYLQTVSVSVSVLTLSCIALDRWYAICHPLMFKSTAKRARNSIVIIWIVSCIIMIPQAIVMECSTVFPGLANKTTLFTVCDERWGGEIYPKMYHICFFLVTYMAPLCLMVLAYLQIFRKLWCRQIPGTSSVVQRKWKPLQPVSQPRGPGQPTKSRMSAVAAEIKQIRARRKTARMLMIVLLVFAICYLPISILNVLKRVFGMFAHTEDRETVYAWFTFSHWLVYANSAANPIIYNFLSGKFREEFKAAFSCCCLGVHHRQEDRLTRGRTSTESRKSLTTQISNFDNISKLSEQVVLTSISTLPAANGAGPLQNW

[46] = Selectivity ratio of Ki for OX2R (unknown origin) transfected in CHO cells to Ki for OX1R (unknown origin) transfected in CHO cells; type: cell-based

Structure (SMILES): Cc1ccc(-n2nccn2)c(C(=O)N2CCCN(c3nc4cc([18F])ccc4s3)C[C@@H]2C)c1
- Drug uptake [1]: 4.74 % ID/g
- Drug uptake [2]: 3.87 % ID/g
- Drug uptake [3]: 2.2 % ID/g
- Drug uptake [4]: 0.64 % ID/g
- Drug uptake [5]: 4.4 % ID/g
- Drug uptake [6]: 4.09 % ID/g
- Drug uptake [7]: 1.43 % ID/g
- Drug uptake [8]: 0.45 % ID/g
- Drug uptake [9]: 8.33 % ID/g
- Drug uptake [10]: 4.87 % ID/g
- Drug uptake [11]: 1.47 % ID/g
- Drug uptake [12]: 0.53 % ID/g
- Drug uptake [13]: 2.38 %ID
- Drug uptake [14]: 4.17 %ID
- Drug uptake [15]: 1.58 %ID
- Drug uptake [16]: 1.97 %ID
- Drug uptake [17]: 3.5 % ID/g
- Drug uptake [18]: 8.75 % ID/g
- Drug uptake [19]: 11.6 % ID/g
- Drug uptake [20]: 15.3 % ID/g
- Drug uptake [21]: 11.9 % ID/g
- Drug uptake [22]: 7.95 % ID/g
- Drug uptake [23]: 4.53 % ID/g
- Drug uptake [24]: 1.64 % ID/g
- Drug uptake [25]: 17.2 % ID/g
- Drug uptake [26]: 30.6 % ID/g
- Drug uptake [27]: 10.1 % ID/g
- Drug uptake [28]: 4.12 % ID/g
- Drug uptake [29]: 9.03 % ID/g
- Drug uptake [30]: 10.2 % ID/g
- Drug uptake [31]: 2.19 % ID/g
- Drug uptake [32]: 0.7 % ID/g
- Drug uptake [33]: 9.43 % ID/g
- Drug uptake [34]: 5.68 % ID/g
- Drug uptake [35]: 2.6 % ID/g
- Drug uptake [36]: 0.7 % ID/g
- Drug uptake [37]: 3.81 % ID/g
- Drug uptake [38]: 1.49 % ID/g
- Drug uptake [39]: 0.39 % ID/g
- Drug uptake [40]: 0.15 % ID/g
- Drug uptake [41]: 2.51 % ID/g
- Drug uptake [42]: 8.73 % ID/g
- Drug uptake [43]: 25.8 % ID/g
- Drug uptake [44]: 37.8 % ID/g

Structure (SMILES): Cc1ccc(-n2nccn2)c(C(=O)N2CCCN(c3nc4ccc(F)cc4o3)C[C@@H]2C)c1
- Ki [45]: 17.7 nM
- Ki (Orexin receptor type 2): 156 nM
- Ratio Ki [46]: 8.8

Structure (SMILES): Cc1ccc(-n2nccn2)c(C(=O)N2CCCN(c3nc4ccc(F)cc4s3)C[C@@H]2C)c1
- Ki [45]: 2.14 nM
- Ki (Orexin receptor type 2): 20.6 nM
- Ratio Ki [46]: 9.63

The next lines start with results.

- Ki [45]: 1.89 nM
- Ki (Orexin receptor type 2): 15.5 nM
Structure (SMILES): C[C@H]1CN(c2nc3ccc(F)cc3s2)CCCN1C(=O)c1cc(F)ccc1-n1nccn1
- Ratio Ki [46]: 8.19

- Ki [45]: 2.33 nM
- Ki (Orexin receptor type 2): 62.8 nM
Structure (SMILES): C[C@H]1CN(c2nc3ccccc3s2)CCCN1C(=O)c1cc(F)ccc1-n1nccn1
- Ratio Ki [46]: 26.9
